Legend:
[1] = system: IFNγ-induced NO production in RAW264.7 macrophages; assay: Suppression of IFNγ-induced NO production (Griess reagent); type: cell-based, mouse; conditions: Mus musculus, 2 h pre-treatment, then 20 ng/ml IFNγ for 24 hours
Experimental: (§1) FIGS. 1-34. Inhibition of NO Production. RAW264.7 macrophages were pre-treated with DMSO or drugs at various concentrations (nM) for 2 hours, then treated with 20 ng/ml IFNγ for 24 hours. NO concentration in media was determined using the Griess reagent system; cell viability was determined using WST-1 reagent. FIGS. 49-52. Inhibition of NO Production. RAW264.7 macrophages were pre-treated with DMSO or drugs at various concentrations (nM) for 2 hours, then treated with 20 ng/ml IFNγ for 24 hours. NO concentration in media was determined using the Griess reagent system; cell viability was determined using WST-1 reagent. RAW264.7 macrophages were pre-treated with DMSO or drugs for 2 hours, then treated with recombinant mouse IFNγ (Sigma) for 24 hours. NO concentration in media was determined using the Griess reagent system (Promega). Cell viability was determined using WST-1 reagent (Roche).

RAW264.7 macrophages = assay: Cell viability, WST-1 reagent; type: cell-based, mouse; conditions: Mus musculus, 2 h pre-treatment, then 20 ng/ml IFNγ for 24 hours
Experimental: as §1

iNOS = iNOS Western blot in RAW264.7 mouse macrophages; type: cell-based; conditions: compounds at 300 nM for 2 hours, 24 hour induction by IFNγ, read-out: iNOS suppr. WB
Experimental: FIGS. 38-40. iNOS Western Blot in RAW264.7 mouse macrophages. Cells were pretreated by compounds at 300 nM for 2 hours, followed by 24 hour induction by IFNγ (20 ng/ml). […]

HO-1 = assay: Nrf2 target gene induction in MDA-MB-435 cells, qPCR: HO-1; type: cell-based, human; conditions: 16 hours
Experimental: FIG. 43. Induction of HO-1. FIGS. 43A and 43B: MDA-MB-435 human melanoma cells were treated with vehicle (DMSO) or the indicated compounds and concentrations for 16 hours. HO-1 mRNA levels were quantified using qPCR and were normalized relative to a DMSO-treated sample run in parallel. Values are averages of duplicate wells. FIG. 43C: MDA-MB-435 cells were treated with vehicle (DMSO) or the indicated compounds at 400 nM for 16 hours. HO-1, TrxR1 and actin protein levels were assayed by immunoblotting. Actin served as a loading control.
(§2) FIGS. 44, 46 and 47—Induction of HO-1, TrxR1 and γ-GCS. FIGS. 44A-C, 46A-C, 47A-C: MDA-MB-435 human melanoma cells were treated with vehicle (DMSO) or the indicated compounds (400 nM) for 16 hours. HO-1, thioredoxin reductase-1 (TrxR1), and γ-glutamylcysteine synthetase (γ-GCS) mRNA levels were quantified using qPCR and were normalized relative to a DMSO-treated sample run in parallel. Values are averages of duplicate wells. FIGS. 44D, 46D, 47D: MDA-MB-435 cells were treated with vehicle (DMSO) or the indicated compounds at 400 nM for 16 hours. HO-1, TrxR1 and actin protein levels were assayed by immunoblotting.
(§3) FIG. 45. Induction of HO-1, TrxR1 and γ-GCS. FIGS. 45 A-C: MDA-MB-435 cells were treated with vehicle (DMSO) or the indicated compounds at 160 nM for 16 hours. HO-1, TrxR1, and γ-GCS mRNA levels were quantified by qPCR and were normalized relative to a DMSO-treated sample run in parallel. Values are averages of duplicate wells. FIGS. 44D, 46D, 47D: MDA-MB-435 cells were treated with vehicle (DMSO) or the indicated compounds at 160 nM for 16 hours. HO-1, TrxR1 and actin protein levels were assayed by immunoblotting.
(§4) MDA-MB-435 human melanoma cells were treated with vehicle (DMSO) or the indicated compounds and concentrations for 16 hours. HO-1, thioredoxin reductase-1 (TrxR1), γ-glutamylcysteine synthetase (γ-GCS), and ferritin heavy chain mRNA levels were quantified using qPCR and were normalized relative to a DMSO-treated sample run in parallel. Values are averages of duplicate wells. Primer sequences are as follows.

TrxR1 = assay: Nrf2 target gene induction in MDA-MB-435 cells, qPCR: TrxR1; type: cell-based, human; conditions: 16 hours
Experimental: as §2, §3, §4

γ-GCS = assay: Nrf2 target gene induction in MDA-MB-435 cells, qPCR: γ-GCS; type: cell-based, human; conditions: 16 hours
Experimental: as §2, §3, §4

Question: What does the source list for `C#CC(=O)N[C@]12CCC(C)(C)C[C@H]1[C@H]1C(=O)C=C3[C@@]4(C)C=C(C#N)C(=O)C(C)(C)[C@@H]4CC[C@@]3(C)[C@]1(C)CC2` [Compound 63246, N-((4aS,6aR,6bS,8aR,12aS,14aR,14bS)-11-cyano-2,2,6a,6b,9,9,12a-heptamethyl-10,14-dioxo-1,2,3,4,4a,5,6,6a,6b,7,8,8a,9,10,12a,14,14a,14b-octadecahydropicen-4a-yl)propiolamide]?
Answer: IC50 [1]: ~3 nM; IC50 (RAW264.7 macrophages): > 200 nM; inhibition at 0.3 µM (iNOS): > 90%; HO-1 induction (HO-1; 400 nM): 25% of induction observed for RTA 402; TrxR1 induction (TrxR1; 400 nM): 66% of induction observed for RTA 402; γ-GCS induction (γ-GCS; 400 nM): 77% of induction observed for RTA 402

Question: How did the IC50 [1] turn out when `CNC(=O)N[C@]12CCC(C)(C)C[C@H]1[C@H]1C(=O)C=C3[C@@]4(C)C=C(C#N)C(=O)C(C)(C)[C@@H]4CC[C@@]3(C)[C@]1(C)CC2` [Compound 63172, 1-((4aS,6aR,6bS,8aR,12aS,14aR,14bS)-11-cyano-2,2,6a,6b,9,9,12a-heptamethyl-10,14-dioxo-1,2,3,4,4a,5,6,6a,6b,7,8,8a,9,10,12a,14,14a,14b-octadecahydropicen-4a-yl)-3-methylurea] was run?
Answer: 30 nM

Question: What about the IC50 (RAW264.7 macrophages) of the same compound?
Answer: > 200 nM

Question: What about the HO-1 induction (HO-1; 160 nM) of the same compound?
Answer: 4% of induction observed for RTA 402

Question: And the TrxR1 induction (TrxR1; 160 nM)?
Answer: 43% of induction observed for RTA 402

Question: What about the γ-GCS induction (γ-GCS; 160 nM) of the same compound?
Answer: 27% of induction observed for RTA 402

Question: How did the IC50 [1] turn out when `CC1(C)CC[C@]2(NC(=O)N3CCCCC3)CC[C@]3(C)[C@H](C(=O)C=C4[C@@]5(C)C=C(C#N)C(=O)C(C)(C)[C@@H]5CC[C@]43C)[C@@H]2C1` [Compound 63181, N-((4aS,6aR,6bS,8aR,12aS,14aR,14bS)-11-cyano-2,2,6a,6b,9,9,12a-heptamethyl-10,14-dioxo-1,2,3,4,4a,5,6,6a,6b,7,8,8a,9,10,12a,14,14a,14b-octadecahydropicen-4a-yl)piperidine-1-carboxamide] was run?
Answer: 4 to 8 nM

Question: And the IC50 (RAW264.7 macrophages)?
Answer: 75 nM

Question: Which IC50 [1] does the source give for `CC(C)OC(=O)N[C@]12CCC(C)(C)C[C@H]1[C@H]1C(=O)C=C3[C@@]4(C)C=C(C#N)C(=O)C(C)(C)[C@@H]4CC[C@@]3(C)[C@]1(C)CC2` [Compound 63184, isopropyl-(4aS,6aR,6bS,8aR,12aS,14aR,14bS)-11-cyano-2,2,6a,6b,9,9,12a-heptamethyl-10,14-dioxo-1,2,3,4,4a,5,6,6a,6b,7,8,8a,9,10,12a,14,14a,14b-octadecahydropicen-4a-ylcarbamate] here?
Answer: 14.5 nM

Question: And the IC50 (RAW264.7 macrophages)?
Answer: 75 nM

Question: `CC1(C)CC[C@]2(NS(=O)(=O)CC(F)(F)F)CC[C@]3(C)[C@H](C(=O)C=C4[C@@]5(C)C=C(C#N)C(=O)C(C)(C)[C@@H]5CC[C@]43C)[C@@H]2C1` [Compound 63247, N-((4aS,6aR,6bS,8aR,12aS,14aR,14bS)-11-cyano-2,2,6a,6b,9,9,12a-heptamethyl-10,14-dioxo-1,2,3,4,4a,5,6,6a,6b,7,8,8a,9,10,12a,14,14a,14b-octadecahydropicen-4a-yl)-2,2,2-trifluoroethanesulfonamide] was tested. Which IC50 [1] did it give?
Answer: ~2 nM

Question: And the IC50 (RAW264.7 macrophages)?
Answer: 150 nM

Question: What about the inhibition at 0.3 µM (iNOS) of the same compound?
Answer: > 90%

Question: And the HO-1 induction (HO-1; 400 nM)?
Answer: 19% of induction observed for RTA 402

Question: And the TrxR1 induction (TrxR1; 400 nM)?
Answer: 76% of induction observed for RTA 402

Question: And the γ-GCS induction (γ-GCS; 400 nM)?
Answer: 75% of induction observed for RTA 402

Question: Which results are given for `CCC(=O)N[C@]12CCC(C)(C)C[C@H]1[C@H]1C(=O)C=C3[C@@]4(C)C=C(C#N)C(=O)C(C)(C)[C@@H]4CC[C@@]3(C)[C@]1(C)CC2` [Compound 63189, N-((4aS,6aR,6bS,8aR,12aS,14aR,14bS)-11-cyano-2,2,6a,6b,9,9,12a-heptamethyl-10,14-dioxo-1,2,3,4,4a,5,6,6a,6b,7,8,8a,9,10,12a,14,14a,14b-octadecahydropicen-4a-yl)propionamide]?
Answer: IC50 [1]: 7.5 nM; IC50 (RAW264.7 macrophages): 75 nM

Question: Which IC50 [1] does the source give for `CC1(C)CC[C@]2(NC(=O)c3ccccc3)CC[C@]3(C)[C@H](C(=O)C=C4[C@@]5(C)C=C(C#N)C(=O)C(C)(C)[C@@H]5CC[C@]43C)[C@@H]2C1` [Compound 63182, N-((4aS,6aR,6bS,8aR,12aS,14aR,14bS)-11-cyano-2,2,6a,6b,9,9,12a-heptamethyl-10,14-dioxo-1,2,3,4,4a,5,6,6a,6b,7,8,8a,9,10,12a,14,14a,14b-octadecahydropicen-4a-yl)benzamide] here?
Answer: 7 to 13 nM

Question: And the IC50 (RAW264.7 macrophages)?
Answer: 125 nM

Question: Which IC50 [1] does the source give for `CC1(C)CC[C@]2(NC(N)=O)CC[C@]3(C)[C@H](C(=O)C=C4[C@@]5(C)C=C(C#N)C(=O)C(C)(C)[C@@H]5CC[C@]43C)[C@@H]2C1` [Compound 63176, 1-((4aS,6aR,6bS,8aR,12aS,14aR,14bS)-11-cyano-2,2,6a,6b,9,9,12a-heptamethyl-10,14-dioxo-1,2,3,4,4a,5,6,6a,6b,7,8,8a,9,10,12a,14,14a,14b-octadecahydropicen-4a-yl)urea] here?
Answer: 100 nM

Question: And the IC50 (RAW264.7 macrophages)?
Answer: > 200 nM

Question: For `CC1(C)CC[C@]2(NC(=O)C3CC3)CC[C@]3(C)[C@H](C(=O)C[C@@H]4[C@@]5(C)C=C(C#N)C(=O)C(C)(C)[C@@H]5CC[C@]43C)[C@@H]2C1` [Compound 63236, N-((4aS,6aR,6bR,8aR,12aR,12bR,14aR,14bS)-11-cyano-2,2,6a,6b,9,9,12a-heptamethyl-10,14-dioxo-1,2,3,4,4a,5,6,6a,6b,7,8,8a,9,10,12a,12b,13,14,14a,14b-icosahydropicen-4a-yl)cyclopropanecarboxamide], which IC50 [1] is on record?
Answer: ~120 nM

Question: And the IC50 (RAW264.7 macrophages)?
Answer: > 200 nM

Question: With `CC1(C)CC[C@]2(NS(=O)(=O)c3cccs3)CC[C@]3(C)[C@H](C(=O)C=C4[C@@]5(C)C=C(C#N)C(=O)C(C)(C)[C@@H]5CC[C@]43C)[C@@H]2C1` [Compound 63187, N-((4aS,6aR,6bS,8aR,12aS,14aR,14bS)-11-cyano-2,2,6a,6b,9,9,12a-heptamethyl-10,14-dioxo-1,2,3,4,4a,5,6,6a,6b,7,8,8a,9,10,12a,14,14a,14b-octadecahydropicen-4a-yl)thiophene-2-sulfonamide] as the compound, how does the IC50 [1] read?
Answer: 2 to 5 nM

Question: What about the IC50 (RAW264.7 macrophages) of the same compound?
Answer: 100 nM

Question: What about the inhibition at 0.3 µM (iNOS) of the same compound?
Answer: > 90%

Question: What about the HO-1 induction (HO-1; 400 nM) of the same compound?
Answer: 32% of induction observed for RTA 402

Question: And the TrxR1 induction (TrxR1; 400 nM)?
Answer: 90% of induction observed for RTA 402

Question: What about the γ-GCS induction (γ-GCS; 400 nM) of the same compound?
Answer: 90% of induction observed for RTA 402

Question: With `CC1(C)CC[C@]2(NC(=O)n3cccn3)CC[C@]3(C)[C@H](C(=O)C=C4[C@@]5(C)C=C(C#N)C(=O)C(C)(C)[C@@H]5CC[C@]43C)[C@@H]2C1` [Compound 63178, N-((4aS,6aR,6bS,8aR,12aS,14aR,14bS)-11-cyano-2,2,6a,6b,9,9,12a-heptamethyl-10,14-dioxo-1,2,3,4,4a,5,6,6a,6b,7,8,8a,9,10,12a,14,14a,14b-octadecahydropicen-4a-yl)-1H-pyrazole-1-carboxamide] as the compound, how does the IC50 [1] read?
Answer: 6.8 nM

Question: What about the IC50 (RAW264.7 macrophages) of the same compound?
Answer: 80 nM

Question: With `CC1(C)CC[C@]2(NC(=O)Nc3ccc(O)cc3)CC[C@]3(C)[C@H](C(=O)C=C4[C@@]5(C)C=C(C#N)C(=O)C(C)(C)[C@@H]5CC[C@]43C)[C@@H]2C1` [Compound 63148, 1-((4aS,6aR,6bS,8aR,12aS,14aR,14bS)-11-cyano-2,2,6a,6b,9,9,12a-heptamethyl-10,14-dioxo-1,2,3,4,4a,5,6,6a,6b,7,8,8a,9,10,12a,14,14a,14b-octadecahydropicen-4a-yl)-3-(4-hydroxyphenyl)urea] as the compound, how does the IC50 [1] read?
Answer: ~25 nM

Question: What about the IC50 (RAW264.7 macrophages) of the same compound?
Answer: > 200 nM
